# Measurements from patent publication EP0643699B1, “6-(2-HYDROXYETHYLAMINOALKYL)-5,11-DIOXO-5,6-DIHYDRO-11H- INDENO[1,2-C]ISOQUINOLINES AND THEIR USE AS ANTINEOPLASTIC AGENTS” (priority 1991, dated 1993).
# Where two headings read alike, the source gives them in different places. Marks after values point to notes of the source that are not given here.
# How the values were obtained:
# Yoshida ascites cells = assay: Cytotoxicity: incorporation of [3H]thymidine and [14C]uridine into trichloroacetic acid-insoluble fraction of cells; format: cell-based, Wistar rats
# Text: The degree of influence on the incorporation of [^3H]thymidine and [^14C]uridine into the fraction of Yoshida ascites cells insoluble in trichloroacetic acid serves as the measure of cytotoxicity.
# Sa37 sarcoma = assay: Antitumour activity in S37 ascites sarcoma bearing mice (tumour weight, total ascitocrit, survival); format: in vivo, mice H; details: for Survival time (T/C, %) / Total ascitocrit (T/C, %) / Tumour weight (T/C, %): administered in four days; for mean value of the tumour weight in comparison with the untreated control group / mean value of tumour cell fraction in ascites fluid (total ascitocrit) in comparison with the untreated control group: eight daily doses
# Text: (§1) The antineoplastic activity of the compounds of the invention has been investigated testing the compounds of the chemical group "in vivo" against experimental rodent tumors such as the solid form of Ehrlich tumour (STE, originally mammary adenocarcinoma), tumor HK (also transplantable originally mammary adenocarcinoma), Krebs' ascites tumour (Kr2), S37 ascites sarcoma, Nemeth-Keller lymphoma (NK), all maintained in mice H, Gardner lymphosarcoma (LsG, maintained in mice C3H), P388 and/or L1210 leukemia (maintained in DBA2 mice), B16 metastasizing melanocarcinoma (maintained in C57B1/6 mice) and Yoshida ascites reticulosarcoma (Y, maintained in Wistar rats) in experiments according to Jelinek, V. [Neoplasma 12, 469 (1965); ibid 7, 146 (1960)] and in "in vitro" experiments using radioactive precursors of nucleic acids and proteins according to Miko, M. et al. [Cancer Res 39, 4242 (1979); Neoplasma 26, 449 (1979); ibid 16, 161 (1969)] with minor modifications [Mattern, J.: Studies on the Drug Sensitivity of Short Term Cultured Tumour Cell Suspensions. In "Human Tumours in Short Term Culture" (Dendy, P.P. ed.), p.301, Academic Press 1976]. The Cox's proportional-hazards model was used for survival evaluation and optimal dose calculation according to Carter, V.H. et al. [cf Cancer Res. 42, 2963 (1982)].
# Eighty female mice H weighing approximately 20 g were divided into four groups: one control group and three experimental groups of 20 animal each. A lethal dose of the Sa37 sarcoma ascitic fluid was implanted intraperitoneally to all the animals. The animals of test groups were treated using the compound suspended in water. The suspension contained the substance in such a concentration that dose 0.6, 0.4 and/or 0.2ml of the suspension p.o. was equal to dose 240, 160 and/or 80 mg/kg p.o., respectively. The drug was administered to the experimental animals once, a day after tumour transplantation. On the tenth day after the tumour transplantation, half of the animals in each group were killed by ether anaesthesia, ascites were emptied after laparotomia and the tumour weight was assessed in all animals from the weight difference before and after laparotomia and ascites removing. In ascites fluid the volume of tumour cell fraction was determined. The remaining animals were left to monitor the time of death and survival time was followed. […] It was also observed that the treated animals survived longer than untreated control animals. […] The results of the experiment are summarized in the following table: Antitumour activity of 6-[2-(2-hydroxyethyl)aminoethyl]5,11-dioxo-5,6-dihydro-11H-indeno[1,2-c]isoquinoline (the substance I, X=2) in S37 sarcoma bearing mice.
# In an analogous experiment carried out on the animals with implanted Sa37 sarcoma the substance I (X=2) was administered in seven daily doses, and the substance I (X=3) in four days. The results of the experiment are summarized in the following table: Antitumour activity of 6-[2-(2-hydroxyethyl)aminoethyl]5,11-dioxo-5,6-dihydro-11H-indeno[1,2-c]isoquinoline (the substance I, X=2) and 6-[3-(2-hydroxyethyl)aminopropyl]5,11-dioxo-5,6-dihydro-11H-indeno[1,2-c]isoquinoline (the substance I, X=3) in S37 bearing mice.
# In an experiment carried out on the animals with implanted Sa37 sarcoma the substance I (X=0) was administered in eight daily doses (analogously as in example 6).
# leukemia P388 = assay: Survival of mice with leukemia P388 after intravenous administration; format: in vivo; details: mice DBA2 with leukemia P388
# Text: as §1, with “(1982)]. […]” for “(1982)].”
# Ehrlich tumour = assay: Antitumour activity against solid form of Ehrlich tumour in mice (tumour weight, survival); format: in vivo, mice H
# Text: as §1
# Sixty female mice H weighing approximately 20 g were divided into three groups: one control group and two experimental groups of 20 animal each. A lethal dose of the 40 Ehrlich tumour homogenate was implanted subcutaneously to all the animals. The animals of test groups were treated using the compounds suspended in water. […] On the fourteenth day after the tumour transplantation, half of the animals in each group were killed by ether anaesthesia, tumours were removed and weighed. The remaining animals were left to monitor the time of death and survival time was followed. […] It was also observed that the treated animals survived longer than untreated control animals.
compound,measurement,setting,value
MITOXANTRON,IC50,"Yoshida ascites cells; Precursor [6-3H]Thymidine, read-out: IC 50",25 µM
same,IC50,"Yoshida ascites cells; Precursor [Uracil-U-14C]uridine, read-out: IC 50",23 µM
"O=C1c2ccccc2-c2c1c1ccccc1c(=O)n2CCCNCCO [I (X=3), 6-[3-(2-hydroxyethyl)aminopropyl]-5,11-dioxo-5,6-dihydro-11H-indeno[1,2-c]isoquinoline]","Survival time (T/C, %)",Sa37 sarcoma; 10 mg/kg p.o.,119%
same,"Total ascitocrit (T/C, %)",Sa37 sarcoma; 10 mg/kg p.o.,80^a) %
same,"Tumour weight (T/C, %)",Sa37 sarcoma; 10 mg/kg p.o.,70^b) %
same,"Survival time (T/C, %)",Sa37 sarcoma; 20 mg/kg p.o.,99%
same,"Total ascitocrit (T/C, %)",Sa37 sarcoma; 20 mg/kg p.o.,62^c) %
same,"Tumour weight (T/C, %)",Sa37 sarcoma; 20 mg/kg p.o.,56^c) %
same,"Total ascitocrit (T/C, %)",Sa37 sarcoma; 30 mg/kg p.o.,43^b) %
same,"Tumour weight (T/C, %)",Sa37 sarcoma; 30 mg/kg p.o.,35^b) %
same,"Survival time (T/C, %)","Sa37 sarcoma; 30 mg/kg p.o., tox - toxic dose",tox
"Cl.O=C1c2ccccc2-c2c1c1ccccc1c(=O)n2CCNCCO [I (X=2) Hydrochloride, 6-[2-(2-hydroxyethyl)aminoethyl]-5,11-dioxo-5,6-dihydro-11H-indeno[1,2-c]isoquinoline hydrochloride]",IC50,"Yoshida ascites cells; Rattus norvegicus, YOSHIDA, Precursor [6-3H]Thymidine, read-out: IC 50",5 µM
same,IC50,"Yoshida ascites cells; Rattus norvegicus, YOSHIDA, Precursor [Uracil-U-14C]uridine, read-out: IC 50",7 µM
same,survival,leukemia P388,highly significant increase of survival
COc1cccc2c1C(=O)c1c(O)c3c(c(O)c1C2=O)C[C@@](O)(C(=O)CO)C[C@@H]3O[C@H]1C[C@H](N)[C@H](O)[C@H](C)O1 [DOXORUBICIN],IC50,"Yoshida ascites cells; Rattus norvegicus, YOSHIDA, Precursor [6-3H]Thymidine",16 µM
same,IC50,"Yoshida ascites cells; Rattus norvegicus, YOSHIDA, Precursor [Uracil-U-14C]uridine",8 µM
"O=C1c2ccccc2-c2c1c1ccccc1c(=O)n2NCCO [I (X=0), 6-[(2-hydroxyethyl)amino]-5,11-dioxo-5,6-dihydro-11H-indeno[1,2-c]isoquinoline]",mean tumour weight lowered by,"Ehrlich tumour; 50 mg/kg p.o. x 8, starting on the first day after tumour transplantation",13%
same,Mean survival time in comparison with the untreated control group,Ehrlich tumour; eight daily doses of 25 mg/kg p.o.,115%
same,mean tumour weight in the treated animals in comparison with the untreated control group,Ehrlich tumour; single dose of 100 mg/kg p.o.,72%
same,mean value of the tumour weight in comparison with the untreated control group,Sa37 sarcoma; 20 mg/kg s.c.,68%
same,mean value of tumour cell fraction in ascites fluid (total ascitocrit) in comparison with the untreated control group,Sa37 sarcoma; 20 mg/kg s.c.,71%
same,mean value of the tumour weight in comparison with the untreated control group,Sa37 sarcoma; 50 mg/kg p.o.,60%
same,mean value of tumour cell fraction in ascites fluid (total ascitocrit) in comparison with the untreated control group,Sa37 sarcoma; 50 mg/kg p.o.,68%
